Measurements: patent US20210269426A1, “MICROBIOCIDAL OXADIAZOLE DERIVATIVES” (SYNGENTA CROP PROTECTION AG, priority 2018, published 2021)

Assays:
[1] = system: Puccinia recondita f. Sp. Tritici; assay: Puccinia recondita f. sp. tritici / wheat / leaf disc preventative (brown rust); format: in vivo; settings: foliar, 200 ppm in the applied formulation, wheat leaf segments cv. Kanzler, inoculated 1 day after application, assessed 7 to 9 days after application, read-out: disease control
Method: Leaf disks or leaf segments of various plant species are cut from plants grown in a greenhouse. The cut leaf disks or segments are placed in multiwell plates (24-well format) onto water agar. The leaf disks are sprayed with a test solution before (preventative) or after (curative) inoculation. Compounds to be tested are prepared as DMSO solutions (max. 10 mg/ml) which are diluted to the appropriate concentration with 0.025% Tween20 just before spraying. The inoculated leaf disks or segments are incubated under defined conditions (temperature, relative humidity, light, etc.) according to the respective test system. A single evaluation of disease level is carried out 3 to 14 days after inoculation, depending on the pathosystem. Percent disease control relative to the untreated check leaf disks or segments is then calculated. Wheat leaf segments cv. Kanzler were placed on agar in multiwell plates (24-well format) and sprayed with the formulated test compound diluted in water. The leaf disks were inoculated with a spore suspension of the fungus 1 day after application. The inoculated leaf segments were incubated at 19° C. and 75% relative humidity (rh) under a light regime of 12 hours light/12 hours darkness in a climate cabinet and the activity of a compound was assessed as percent disease control compared to untreated when an appropriate level of disease damage appears in untreated check leaf segments (7 to 9 days after application). The following compounds at 200 ppm in the applied formulation give at least 80% disease control in this test when compared to untreated control leaf disks under the same conditions, which show extensive disease development.

[2] = system: Glomerella lagenarium (Colletotrichum lagenarium); assay: Glomerella lagenarium (Colletotrichum lagenarium) liquid culture / cucumber / preventative (anthracnose); format: cell-based; settings: Colletotrichum orbiculare; 20 ppm in the applied formulation; liquid culture in PDB, 24° C., 3 to 4 days after application; read-out: disease control (inhibition of growth, photometric)
Method: Mycelia fragments or conidia suspensions of a fungus prepared either freshly from liquid cultures of the fungus or from cryogenic storage, are directly mixed into nutrient broth. DMSO solutions of the test compound (max. 10 mg/ml) are diluted with 0.025% Tween20 by a factor of 50 and 10 μl of this solution is pipetted into a microtiter plate (96-well format). The nutrient broth containing the fungal spores/mycelia fragments is then added to give an end concentration of the tested compound. The test plates are incubated in the dark at 24° C. and 96% relative humidity. The inhibition of fungal growth is determined photometrically after 2 to 7 days, depending on the pathosystem, and percent antifungal activity relative to the untreated check is calculated.
Conidia of the fungus from cryogenic storage are directly mixed into nutrient broth (PDB—potato dextrose broth). After placing a (DMSO) solution of test compound into a microtiter plate (96-well format), the nutrient broth containing the fungal spores is added. The test plates are incubated at 24° C. and the inhibition of growth is measured photometrically 3 to 4 days after application.
The following compounds at 20 ppm in the applied formulation give at least 80% disease control in this test when compared to untreated control under the same conditions, which show extensive disease development.

melting point	Structure (SMILES)	pest or weed control at 200 ppm [1]	inhibition at 20 ppm [2]
109.7 to 112.1 °C	CONC(=O)C(=O)c1ccc(-c2noc(C(F)(F)F)n2)s1 [Compound 1.5, N-methoxy-2-oxo-2-[5-[5-(trifluoromethyl)-1,2,4-oxadiazol-3-yl]-2-thienyl]acetamide]	≥ 80%	≥ 80%
142.7 to 144.6 °C	CCNC(=O)C(=O)c1ccc(-c2noc(C(F)(F)F)n2)s1 [Compound 1.6, N-ethyl-2-oxo-2-[5-[5-(trifluoromethyl)-1,2,4-oxadiazol-3-yl]-2-thienyl]acetamide]	≥ 80%	≥ 80%
96.2 to 98.7 °C	CNC(=O)C(=O)c1ccc(-c2noc(C(F)(F)F)n2)s1 [Compound 1.7, N-methyl-2-oxo-2-[5-[5-(trifluoromethyl)-1,2,4-oxadiazol-3-yl]-2-thienyl]acetamide]	≥ 80%	≥ 80%
122.1 to 126.7 °C	O=C(NC1CC1)C(=O)c1ccc(-c2noc(C(F)(F)F)n2)s1 [Compound 1.8, N-cyclopropyl-2-oxo-2-[5-[5-(trifluoromethyl)-1,2,4-oxadiazol-3-yl]-2-thienyl]acetamide]	≥ 80%	≥ 80%

Second part, the compound before the results:

Structure (SMILES)	melting point	pest or weed control at 200 ppm [1]	inhibition at 20 ppm [2]
O=C(NCc1ccccc1Cl)C(=O)c1ccc(-c2noc(C(F)(F)F)n2)s1 [Compound 1.1, N-[(2-chlorophenyl)methyl]-2-oxo-2-[5-[5-(trifluoromethyl)-1,2,4-oxadiazol-3-yl]-2-thienyl]acetamide]	94 to 95.2 °C	≥ 80%	≥ 80%
COCCNC(=O)C(=O)c1ccc(-c2noc(C(F)(F)F)n2)s1 [Compound 1.2, N-(2-methoxyethyl)-2-oxo-2-[5-[5-(trifluoromethyl)-1,2,4-oxadiazol-3-yl]-2-thienyl]acetamide]	106 to 107.1 °C	≥ 80%	≥ 80%
CN(C)C(=O)C(=O)c1ccc(-c2noc(C(F)(F)F)n2)s1 [Compound 1.3, N,N-dimethyl-2-oxo-2-[5-[5-(trifluoromethyl)-1,2,4-oxadiazol-3-yl]-2-thienyl]acetamide]	88.4 to 89.4 °C	≥ 80%	≥ 80%
CON(C)C(=O)C(=O)c1ccc(-c2noc(C(F)(F)F)n2)s1 [Compound 1.4, N-methoxy-N-methyl-2-oxo-2-[5-[5-(trifluoromethyl)-1,2,4-oxadiazol-3-yl]-2-thienyl]acetamide]		≥ 80%	≥ 80%
